Results from US20100137313A1 (ASTRAZENECA AB, priority 2008, published 2010).

Each compound was assayed against S. pneumoniae Topoisomerase IV ATPase (ParE) (Streptococcus pneumoniae serotype 4, UniProt Q59961) (assay: S. pneumoniae Topoisomerase IV ATPase inhibition). Conditions: values marked * are an average of two or more data points, read-out: % Inh (13 μM) of S. pneumoniae Topoisomerase IV ATPase.
Format: biochemical
Procedure: S. pneumoniae Topoisomerase IV ATPase Inhibition Activity: Compounds may be tested for inhibition of S. pneumoniae ParE ATPase activity using an ammonium molybdate/malachite green-based phosphate detection assay (Lanzetta, P. A., L. J. Alvarez, P. S. Reinach, and O. A. Candia, 1979, 100: 95-97). Assays are performed in multiwell plates in 30 μl reactions containing: 20 mM Tris buffer pH 8.0, 50 mM ammonium acetate, 8.0 mM magnesium chloride, 0.5 mM ethylenediaminetetraacetic acid, 5% glycerol, 5 mM 1,4-Dithio-DL-threitol, 0.005% Brij-35, 5 μg/ml sheared salmon sperm DNA, 1.25 nM S. pneumoniae ParE, 160 μM ATP, and test compound in dimethylsulfoxide. Reactions are quenched with 30 μl of ammonium molybdate/malachite green detection reagent containing 1.2 mM malachite green hydrochloride, 8.5 mM ammonium molybdate tetrahydrate, and 1 M hydrochloric acid. Plates are read in an absorbance plate reader at 650 nm and percent inhibition values are calculated using dimethylsulfoxide (2%)-containing reactions as 0% inhibition and EDTA-containing ([…]) reactions as 100% inhibition controls. An IC50 measurement of compound potency for each compound can be determined from reactions performed in the presence of 10 different compound concentrations.
Many of the compounds of the invention were tested in an assay substantially similar to the assays described above for measuring the inhibition of E.coli GyrB ATPase, E. coli Topoisomerase IV ATPase, S. aureus GyrB ATPase, and S. pneumoniae Topoisomerase IV ATPase, and had IC50 values of <200 μM in one or more assays.

S. pneumoniae Topoisomerase IV ATPase (ParE), sequence (Q59961 whole entry): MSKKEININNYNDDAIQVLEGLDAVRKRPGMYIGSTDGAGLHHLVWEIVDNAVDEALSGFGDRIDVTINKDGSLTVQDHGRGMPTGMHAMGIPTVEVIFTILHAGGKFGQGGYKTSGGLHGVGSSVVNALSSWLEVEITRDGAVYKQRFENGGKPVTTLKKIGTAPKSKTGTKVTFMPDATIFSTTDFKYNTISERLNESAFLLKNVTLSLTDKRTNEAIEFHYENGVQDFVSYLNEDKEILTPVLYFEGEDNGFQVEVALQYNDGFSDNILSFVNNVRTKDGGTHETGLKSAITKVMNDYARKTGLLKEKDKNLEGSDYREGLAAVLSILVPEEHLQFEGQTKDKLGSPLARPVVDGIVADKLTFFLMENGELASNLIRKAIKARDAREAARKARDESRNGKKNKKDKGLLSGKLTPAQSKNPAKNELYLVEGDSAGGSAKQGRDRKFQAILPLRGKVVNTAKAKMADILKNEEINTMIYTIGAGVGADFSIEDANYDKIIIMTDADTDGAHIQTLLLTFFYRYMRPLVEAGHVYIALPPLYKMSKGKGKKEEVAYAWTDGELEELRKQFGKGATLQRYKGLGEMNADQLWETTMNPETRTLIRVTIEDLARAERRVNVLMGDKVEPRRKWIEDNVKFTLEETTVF

| Structure (SMILES) | inhibition at 13 µM [%] |
| --- | --- |
| CN(C)CCCNc1nc(Nc2ccc(F)c(Cl)c2)ncc1-c1cccc(/C=C/C(=O)O)c1 [Example 29, (2E)-3-[3-(2-[(3-chloro-4-fluorophenyl)amino]-4-{[3-(dimethylamino)propyl]-amino}pyrimidin-5-yl)phenyl]prop-2-enoic acid] | 99.7 |
| CN(C)CCCNc1nc(Nc2ccc(F)c(Cl)c2)ncc1-c1cccc(C(=O)O)c1 [Example 31, 3-(2-[(3-chloro-4-fluorophenyl)amino]-4-{[3-(dimethylamino)propyl]-amino}pyrimidin-5-yl)benzoic acid] | 86 |
| CN(C)CCCNc1nc(Nc2ccc(F)c(Cl)c2)ncc1-c1cncnc1 [Example 32, N^2-(3-chloro-4-fluorophenyl)-N^4-[3-(dimethylamino)propyl]-5,5′-bipyrimidine-2,4-diamine] | 91.1 |
| CCCNc1nc(Nc2ccc(F)c(Cl)c2)ncc1-c1cncnc1 [Example 33, N^2-(3-chloro-4-fluorophenyl)-N^4-propyl-5-pyrimidin-5-ylpyrimidine-2,4-diamine] | 81 |
| O=C1CCCN1CCCNc1nc(Nc2ccc(F)c(Cl)c2)ncc1-c1cncnc1 [Example 34, 1-[3-[[2-[(3-chloro-4-fluorophenyl)amino]-5-pyrimidin-5-ylpyrimidin-4-yl]amino]propyl] pyrrolidin-2-one] | 84.3 |
| CC(=O)N1CCC(Nc2nc(Nc3ccc(F)c(Cl)c3)ncc2-c2cncnc2)CC1 [Example 35, 1-[4-[[2-[(3-chloro-4-fluorophenyl)amino]-5-pyrimidin-5-ylpyrimidin-4-yl]amino]piperidin-1-yl]ethanone] | 58.3 |
| CC(=O)NCCNc1nc(Nc2ccc(F)c(Cl)c2)ncc1-c1cncnc1 [Example 37, N-[2-[[2-[(3-chloro-4-fluorophenyl)amino]-5-pyrimidin-5-ylpyrimidin-4-yl]amino]ethyl] acetamide] | 76.3 |
| Fc1ccc(Nc2ncc(-c3cncnc3)c(NCc3ccccn3)n2)cc1Cl [Example 38, N^2-(3-chloro-4-fluorophenyl)-N^4-(pyridin-2-ylmethyl)-5-pyrimidin-5-ylpyrimidine-2,4-diamine] | 62.3 |
| Fc1ccc(Nc2ncc(-c3cncnc3)c(NCc3cccnc3)n2)cc1Cl [Example 39, N^2-(3-chloro-4-fluorophenyl)-N^4-(pyridin-3-ylmethyl)-5-pyrimidin-5-ylpyrimidine-2,4-diamine] | 63 |
| Fc1ccc(Nc2ncc(-c3cncnc3)c(NCc3ccncc3)n2)cc1Cl [Example 40, N^2-(3-chloro-4-fluorophenyl)-N^4-(pyridin-4-ylmethyl)-5-pyrimidin-5-ylpyrimidine-2,4-diamine] | 72.4 |
| CC(C)(C)OC(=O)NCCNc1nc(Nc2ccc(F)c(Cl)c2)ncc1-c1cncnc1 [Example 41, tert-butyl N-[2-[[2-[(3-chloro-4-fluorophenyl)amino]-5-pyrimidin-5-ylpyrimidin-4-yl]amino]ethyl] carbamate] | 72.7 |
| NC(=O)CCNc1nc(Nc2ccc(F)c(Cl)c2)ncc1-c1cncnc1 [Example 42, 3-[[2-[(3-chloro-4-fluorophenyl)amino]-5-pyrimidin-5-ylpyrimidin-4-yl]amino]propanamide] | 77.5 |
| Fc1ccc(Nc2ncc(-c3cncnc3)c(NCCN3CCOCC3)n2)cc1Cl [Example 43, N^2-(3-chloro-4-fluorophenyl)-N^4-(2-morpholin-4-ylethyl)-5-pyrimidin-5-ylpyrimidine-2,4-diamine] | 74.3 |
| Fc1ccc(Nc2ncc(-c3cncnc3)c(NCCc3ccccn3)n2)cc1Cl [Example 44, N^2-(3-chloro-4-fluorophenyl)-N^4-(2-pyridin-2-ylethyl)-5-pyrimidin-5-ylpyrimidine-2,4-diamine] | 78.4 |
| Fc1ccc(Nc2ncc(-c3cncnc3)c(NCCc3cccnc3)n2)cc1Cl [Example 45, N^2-(3-chloro-4-fluorophenyl)-N^4-(2-pyridin-3-ylethyl)-5-pyrimidin-5-ylpyrimidine-2,4-diamine] | 81.9 |
| O=S1(=O)CCN(CCNc2nc(Nc3ccc(F)c(Cl)c3)ncc2-c2cncnc2)CC1 [Example 47, N^2-(3-chloro-4-fluorophenyl)-N^4-[2-(1,1-dioxo-1,4-thiazinan-4-yl)ethyl]-5-pyrimidin-5-ylpyrimidine-2,4-diamine] | 74.8 |
| O=S1(=O)CCN(CCCNc2nc(Nc3ccc(F)c(Cl)c3)ncc2-c2cncnc2)CC1 [Example 48, N^2-(3-chloro-4-fluorophenyl)-N^4-[3-(1,1-dioxo-1,4-thiazinan-4-yl)propyl]-5-pyrimidin-5-ylpyrimidine-2,4-diamine] | 79.8 |

| Structure (SMILES) | inhibition at 13 µM [%] |
| --- | --- |
| Fc1ccc(Nc2ncc(-c3cncnc3)c(NCCCN3CCOCC3)n2)cc1Cl [Example 49, N^2-(3-chloro-4-fluorophenyl)-N^4-(3-morpholin-4-ylpropyl)-5-pyrimidin-5-ylpyrimidine-2,4-diamine] | 85.6 |
| COCCNc1nc(Nc2ccc(F)c(Cl)c2)ncc1-c1cncnc1 [Example 50, N^2-(3-chloro-4-fluorophenyl)-N^4-(2-methoxyethyl)-5-pyrimidin-5-ylpyrimidine-2,4-diamine] | 77.8 |
| Fc1ccc(Nc2ncc(-c3cncnc3)c(NCC3CCCO3)n2)cc1Cl (stereo not shown) [Example 51, N-(3-chloro-4-fluorophenyl)-N′-(oxolan-2-ylmethyl)-5-pyrimidin-5-ylpyrimidine-2,4-diamine] | 88.8 |
| CC(C)OCCNc1nc(Nc2ccc(F)c(Cl)c2)ncc1-c1cncnc1 [Example 52, N^2-(3-chloro-4-fluorophenyl)-N4-(2-propan-2-yloxyethyl)-5-pyrimidin-5-ylpyrimidine-2,4-diamine] | 69.5 |
| Fc1ccc(Nc2ncc(-c3cncnc3)c(NCc3ccco3)n2)cc1Cl [Example 53, N^2-(3-chloro-4-fluorophenyl)-N^4-(furan-2-ylmethyl)-5-pyrimidin-5-ylpyrimidine-2,4-diamine] | 70.5 |
| CCOC(=O)CNc1nc(Nc2ccc(F)c(Cl)c2)ncc1-c1cncnc1 [Example 54, ethyl 2-[[2-[(3-chloro-4-fluorophenyl)amino]-5-pyrimidin-5-ylpyrimidin-4-yl]amino]acetate] | 77.5 |
| Fc1ccc(Nc2ncc(-c3cncnc3)c(NCCOc3ccccc3)n2)cc1Cl [Example 55, N^2-(3-chloro-4-fluorophenyl)-N^4-(2-phenoxyethyl)-5-pyrimidin-5-ylpyrimidine-2,4-diamine] | 44.4 |
| COC(=O)[C@@H](C)Nc1nc(Nc2ccc(F)c(Cl)c2)ncc1-c1cncnc1 [Example 56, methyl (2R)-2-[[2-[(3-chloro-4-fluorophenyl)amino]-5-pyrimidin-5-ylpyrimidin-4-yl]amino]propanoate] | 46.3 |
| Cc1cnc(CNc2nc(Nc3ccc(F)c(Cl)c3)ncc2-c2cncnc2)cn1 [Example 58, N^2-(3-chloro-4-fluorophenyl)-N^4-[(5-methylpyrazin-2-yl)methyl]-5-pyrimidin-5-ylpyrimidine-2,4-diamine] | 58 |
| CC(C)Nc1nc(Nc2ccc(F)c(Cl)c2)ncc1-c1cncnc1 [Example 59, N^2-(3-chloro-4-fluorophenyl)-N^4-propan-2-yl-5-pyrimidin-5-ylpyrimidine-2,4-diamine] | 51.8 |
| OC1CCN(c2nc(Nc3ccc(F)c(Cl)c3)ncc2-c2cncnc2)CC1 [Example 60, 1-[2-[(3-chloro-4-fluorophenyl)amino]-5-pyrimidin-5-ylpyrimidin-4-yl]piperidin-4-ol] | 72.3 |
| OCC1CCCN(c2nc(Nc3ccc(F)c(Cl)c3)ncc2-c2cncnc2)C1 (stereo not shown) [Example 61, [1-[2-[(3-chloro-4-fluorophenyl)amino]-5-pyrimidin-5-ylpyrimidin-4-yl]piperidin-3-yl]methanol] | 74.8 |
| Fc1ccc(Nc2ncc(-c3cncnc3)c(N3CCC(N4CCOCC4)CC3)n2)cc1Cl [Example 62, N-(3-chloro-4-fluorophenyl)-4-(4-morpholin-4-ylpiperidin-1-yl)-5-pyrimidin-5-ylpyrimidin-2-amine] | 71 |
| CNC(=O)C1CCN(c2nc(Nc3ccc(F)c(Cl)c3)ncc2-c2cncnc2)CC1 [Example 63, 1-[2-[(3-chloro-4-fluorophenyl)amino]-5-pyrimidin-5-ylpyrimidin-4-yl]-N-methylpiperidine-4-carboxamide] | 69.9 |
| Fc1ccc(Nc2ncc(-c3cncnc3)c(N3CCC(F)CC3)n2)cc1Cl [Example 64, N-(3-chloro-4-fluorophenyl)-4-(4-fluoropiperidin-1-yl)-5-pyrimidin-5-ylpyrimidin-2-amine] | 65.4 |
| COC1CCN(c2nc(Nc3ccc(F)c(Cl)c3)ncc2-c2cncnc2)CC1 [Example 65, N-(3-chloro-4-fluorophenyl)-4-(4-methoxypiperidin-1-yl)-5-pyrimidin-5-ylpyrimidin-2-amine] | 75.9 |
| OC1CCN(c2nc(Nc3ccc(F)c(Cl)c3)ncc2-c2cncnc2)C1 (stereo not shown) [Example 66, 1-[2-[(3-chloro-4-fluorophenyl)amino]-5-pyrimidin-5-ylpyrimidin-4-yl]pyrrolidin-3-ol] | 62.1 |
